The results in this text go back to article PMC8448343, “Characterisation of novel functionality within the Blastocystis tryptophanase gene” (PLoS Neglected Tropical Diseases, 2021).

The target of this test is T1, BhTnaA (Blastocystis ST7-B tryptophanase) (Blastocystis hominis, UniProt D8M5A5).
T1 construct: gene GSBLH_T00003147001; pGEX-6P-1, N-terminal GST tag cut with PreScission protease; E. coli BL21
T1 sequence (D8M5A5 1-544): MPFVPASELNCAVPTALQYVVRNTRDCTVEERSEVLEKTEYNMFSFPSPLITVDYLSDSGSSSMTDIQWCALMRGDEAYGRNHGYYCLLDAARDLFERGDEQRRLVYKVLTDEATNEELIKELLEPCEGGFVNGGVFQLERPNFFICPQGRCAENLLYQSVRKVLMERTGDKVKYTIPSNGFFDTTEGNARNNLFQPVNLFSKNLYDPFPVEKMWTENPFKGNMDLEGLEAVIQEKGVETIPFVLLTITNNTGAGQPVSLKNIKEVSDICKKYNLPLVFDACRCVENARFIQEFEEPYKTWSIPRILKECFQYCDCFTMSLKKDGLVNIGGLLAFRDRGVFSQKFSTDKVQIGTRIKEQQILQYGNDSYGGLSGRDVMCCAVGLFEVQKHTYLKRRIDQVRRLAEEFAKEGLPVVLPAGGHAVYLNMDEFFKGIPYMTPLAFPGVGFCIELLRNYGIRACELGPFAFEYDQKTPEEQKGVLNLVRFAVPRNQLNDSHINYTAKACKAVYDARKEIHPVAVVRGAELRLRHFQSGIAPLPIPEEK
Nature of the test: indole formation, Ehrlich's reagent, […] nm, Hanes-Woolf plot. Type of test: biochemical. Particulars: forward reaction (tryptophan to indole); PLP 0.165 mM; pH 7.5; 37 °C; toluene-layered; exact value only in Fig 4D.

Turning to `N[C@@H](Cc1c[nH]c2ccccc12)C(=O)O` [L-tryptophan], the Michaelis constant (Km) (in general, the concentration of substrate that gives half-maximal velocity) is over 3 mM.
